Reference: patent US10806121B2, “Animal litter containing a pheromone composition” (Sergeant's Pet Care Products, LLC, priority 2014, dated 2020)

Tested on: cats
Assay: Study 2: behavior scores of paired unfamiliar cats, CON litter Day 1 then RP litter Day 2
Assay type: in vivo
Set-up: litter box weight, RP after / litter box weight, Change (RP): unit not given here
Conditions: for Average aggression score by pair, Day 2 (RP): total possible 48
Experimental: During the studies, cat behavior was captured on video for the duration of the 24- or 48-hour period depending on the specific study. Red lights were used at night to allow for continuous observation. A scan sampling method was used to record cat behaviors each 5 minutes. The recorded videos were subsequently reviewed and analyzed in each 5-minute scan sample, with tape playing 30 frames per second. At each 5-minute time point, each cat was categorized as anxious or relaxed. Aggression or litter box usage occurred between 5-minute periods were also noted. Because each scan sample is of 5-minute period, a total of 24 observations for each individual behavior are possible for each 2 hours. The instances of an individual behavior (An; n=1, 2, 3, . . . 24) in each 5-minute period were totaled for instances in each 2 hours (Bm=ΣAn, n=1, 2, 3, . . . 24; m=1, 2, 3, . . . 12) over 24 hours. The behavioral score for each 2-hour period is ΣAn/24 (n=1, 2, 3, . . . , 24). A behavioral score for a 24-hour period is ΣBm/12 (m=1, 2, 3, . . . 12). Among all behavior assessed, aggression, in-litter-box and anxiety were scored as yes or no during each 5 minutes (An=1 or 0; n=1, 2, 3, . . . 24). In addition, anxiety was measured as a percentage of the total time that the cat was experiencing anxiety. As such the anxiety related behavioral score for a 24-hour period is 0.347×ΣBm (%) (Bm=ΣAn(%), n=1, 2, 3, . . . 24; m=1, 2, 3, . . . 12), which reflects the percentage of time over 24 hours that the cats are experiencing anxiety. Moreover, when ranking cat pairs based on their level of aggression, the sum of the aggression scores of the individual cats in the pair was used to rank the cat pairs. Behavior data (behavioral scores) were further analyzed by Least Squares Analysis of variance using SAS (2011, SAS Inst., Inc., Cary, N.C.) software and the p-diff general linear model procedures to assess treatment differences within each time period. This statistical model included effects of treatment (TRT), cat-pair within treatment (TRT*CAT), time (HR), treatment by time (TRT*HR) and residual error (SE; used to test remaining effects). The previous study established that cats are attracted to litter treated with 2-methylbut-2-enal. In this study, 48 cats were used to determine the effect of litter treated with 2-methylbut-2-enal (RP) to the cat's various behaviors listed in Table 5. Litter was prepared in two batches, by mixing beads about 0.065″ in length both with and without 2-methylbut-2-enal. Blank beads were mixed thoroughly into one batch of litter so that the litter comprised about 3% (w/w) beads to form the control litter (CON). Similarly, beads containing a pheromone composition comprising 0.02% (w/w) 2-methylbut-2-enal (formed in accordance with Example 2 or 3) were mixed thoroughly into the other batch of litter so that the litter also comprised 3% (w/w) beads to form the treated litter (RP). Each batch of the litter was divided into 3 lb. aliquots that were ready to be tested. The 48 cats were randomly grouped into 24 same-sex pairs, which were divided into two groups with 12 pairs in each. The cats of each pair had either been housed individually or in groups of two previously, but had not been placed together prior to this study. As such, each cat was made sure to pair with an unfamiliar cat for the duration of the study. The first 12 pairs of two unfamiliar cats were tested over a 48-hour period. Subsequently, all chambers used were sanitized and aired out, and then the second group of 12 pair of cats was tested. Each pair of cats was placed in a kennel containing one food dish, one water dish, and one litter box. […]

## C/C=C(\C)C=O [RP, 2-methylbut-2-enal]
Day 1 untreated litter (21%) to Day 2 treated litter (12%)
  reduction of anxiety of the cats in pairs: ~50%
Day 2, RP litter (3% (w/w) beads with 0.02% (w/w) 2-methylbut-2-enal), 24 cat pairs, Day 1 Con 0.90
  Average behavior score: Head in food/H2O dish: 1.05
Day 2, RP litter, 24 cat pairs, Day 1 Con 0.03
  Average behavior score: Grooming other: 0.01
Day 2, RP litter, 24 cat pairs, Day 1 Con 0.07
  Average behavior score: In litter box - using: 0.27
Day 2, RP litter, 24 cat pairs, Day 1 Con 0.48
  Average behavior score: Neutral social interaction: 0.33
Day 2, RP litter, 24 cat pairs, Day 1 Con 0.65
  Average behavior score: Play: 0.52
Day 2, RP litter, 24 cat pairs, Day 1 Con 0.70
  Average behavior score: Grooming self: 0.77
Day 2, RP litter, 24 cat pairs, Day 1 Con 0.89
  Average behavior score: Lying/sitting - touching: 0.98
Day 2, RP litter, 24 cat pairs, Day 1 Con 1.98
  Average behavior score: Sleeping: 2.71
Day 2, RP litter, 24 cat pairs, Day 1 Con 2.10
  Average behavior score: In litter box - not using: 2.73
Day 2, RP litter, 24 cat pairs, Day 1 Con 3.00
  Average behavior score: Aggression: 1.95
Day 2, RP litter, 24 cat pairs, Day 1 Con 3.19
  Average behavior score: Locomotion: 4.66
Day 2, RP litter, 24 cat pairs, Day 1 Con 17.0
  Average behavior score: Lying/sitting - not touching: 15.4
Day 2, RP litter, 24 cat pairs, percentage of time over 24 hours, Day 1 Con 21.0
  Average behavior score: Anxiety (%): 12.0%
Pair 1 (M, M), rank 6, Day 1 (con) 2.92
  Average aggression score by pair, Day 2 (RP): 0.13
Pair 2 (M, M), rank 24, Day 1 (con) 0.00
  Average aggression score by pair, Day 2 (RP): 0.00
Pair 3 (M, M), rank 4, Day 1 (con) 6.33
  Average aggression score by pair, Day 2 (RP): 3.42
Pair 4 (M, M), rank 3, Day 1 (con) 6.50
  Average aggression score by pair, Day 2 (RP): 0.08
Pair 5 (M, M), rank 5, Day 1 (con) 3.58
  Average aggression score by pair, Day 2 (RP): 4.67
Pair 6 (M, M), rank 13, Day 1 (con) 1.08
  Average aggression score by pair, Day 2 (RP): 0.13
Pair 7 (F, F), rank 20, Day 1 (con) 0.04
  Average aggression score by pair, Day 2 (RP): 0.33
Pair 8 (F, F), rank 14, Day 1 (con) 0.50
  Average aggression score by pair, Day 2 (RP): 0.88
Pair 9 (F, F), rank 19, Day 1 (con) 0.08
  Average aggression score by pair, Day 2 (RP): 0.08
Pair 10 (F, F), rank 2, Day 1 (con) 10.13
  Average aggression score by pair, Day 2 (RP): 3.25
Pair 11 (F, F), rank 12, Day 1 (con) 1.63
  Average aggression score by pair, Day 2 (RP): 1.50
Pair 12 (F, F), rank 23, Day 1 (con) 0.00
  Average aggression score by pair, Day 2 (RP): 0.00
Pair 13 (M, M), rank 1, Day 1 (con) 27.00
  Average aggression score by pair, Day 2 (RP): 18.25
Pair 14 (M, M), rank 8, Day 1 (con) 2.54
  Average aggression score by pair, Day 2 (RP): 2.58
Pair 15 (M, M), rank 7, Day 1 (con) 2.54
  Average aggression score by pair, Day 2 (RP): 3.83
Pair 16 (C, M), rank 11, Day 1 (con) 1.63
  Average aggression score by pair, Day 2 (RP): 0.71
Pair 17 (M, M), rank 9, Day 1 (con) 2.46
  Average aggression score by pair, Day 2 (RP): 2.13
Pair 18 (M, M), rank 10, Day 1 (con) 2.38
  Average aggression score by pair, Day 2 (RP): 1.88
Pair 19 (M, M), rank 15, Day 1 (con) 0.33
  Average aggression score by pair, Day 2 (RP): 0.00
Pair 20 (F, F), rank 22, Day 1 (con) 0.00
  Average aggression score by pair, Day 2 (RP): 0.21
Pair 21 (F, F), rank 18, Day 1 (con) 0.08
  Average aggression score by pair, Day 2 (RP): 0.92
Pair 22 (F, F), rank 16, Day 1 (con) 0.17
  Average aggression score by pair, Day 2 (RP): 0.13
Pair 23 (F, F), rank 17, Day 1 (con) 0.08
  Average aggression score by pair, Day 2 (RP): 1.00
Pair 24 (F, F), rank 21, Day 1 (con) 0.00
  Average aggression score by pair, Day 2 (RP): 0.63
RP after minus RP before, CON change 0.02
  litter box weight, Change (RP): 0.11
RP change versus CON change
  Changes in litter box weights, % difference: 438%
After 24 hours of use, RP before 2.1
  litter box weight, RP after: 2.21
Aggression score 3.0 to 1.95 after exposure to RP litter
  reduction of aggression from Day 1 to Day 2: 68.3%
Score 0.07 (Day 1 CON) to 0.27 (Day 2 RP)
  increase of litter box use: 386%
